Measured values taken from patent publication US20040121474A1, “Detection and evaluation of chemically-mediated and ligand-mediated t-cell activation using optophoretic analysis” (Genoptix, Inc, priority 2002, published 2004).

Key:
U937 cells = assay: Escape velocity, effect of camptothecin on U937 cells; assay type: cell-based; settings: camptothecin-treated U937 cells
Experimental: The objective of this experiment is to test the effects of camptothecin on the escape velocities of U937 cells. Camptothecin inhibits DNA topoisomerase I and induces apoptosis. A control and three concentrations of camptothecin were tested: […]. After adding the camptothecin, the flasks are incubated at 37° C. 5% CO2.
At the timepoints of 4 hours and 6 hours, 200 μl of cells are spun for 5 minutes at 5000 rpm. The cells are then resuspended in […] PBS/1% BSA and […] trypan blue.
Optophoretic techniques have been investigated for their potential to detect the early onset of apoptosis in mammalian cells. U.S. patent application Ser. No. 10,240,611, for example, discloses multiple experiments in which U937 cells were treated with camptothecin and subsequently monitored Optophoretically using measured escape velocities. In one experiment, the escape velocity of the camptothecin-treated cells were measured at 4 and 6 hours after treatment. Noticeable changes in escape velocity were seen as early as 4 hours after treatment (see, e.g., FIG. 34). In that experiment, U937 cells were treated with 4 μg/ml of camptothecin and resuspended in PBS/1% BSA. Escape velocity measurements were taken after 4 and 6 hours. Table 18, reproduced below, includes the results of the escape velocity measurements for the test cells as well as the controls.

CEM/C2 = CEM/C2 cell line obtained from ATCC; cited from earlier work

CC[C@@]1(O)C(=O)OCc2c1cc1n(c2=O)Cc2cc3ccccc3nc2-1 [Camptothecin]
time after treatment at which noticeable changes in escape velocity were seen (U937 cells): ≤ 4 h
less sensitive than parental cell line CCRF-CEM (CEM/C2): 970 fold
